From ChEMBL document CHEMBL1140726, “Discovery and biological evaluation of 5-aryl-2-furfuramides, potent and selective blockers of the Nav1.8 sodium channel with efficacy in models of neuropathic and inflammatory pain” (J Med Chem, 2008) come the findings set out here.

For data set [1], the target named is T1, Sodium channel protein type 10 subunit alpha (Homo sapiens, UniProt Q9Y5Y9). Description: Activity at human recombinant Nav 1.8 channel expressed in HEK293 cells in inactivated state with prepulse voltage of -40 mV assessed as blockade of TTx-resistant sodium current at 1 uM. The data set is classed as cell-based.
T1 sequence (Q9Y5Y9 whole entry, looked up): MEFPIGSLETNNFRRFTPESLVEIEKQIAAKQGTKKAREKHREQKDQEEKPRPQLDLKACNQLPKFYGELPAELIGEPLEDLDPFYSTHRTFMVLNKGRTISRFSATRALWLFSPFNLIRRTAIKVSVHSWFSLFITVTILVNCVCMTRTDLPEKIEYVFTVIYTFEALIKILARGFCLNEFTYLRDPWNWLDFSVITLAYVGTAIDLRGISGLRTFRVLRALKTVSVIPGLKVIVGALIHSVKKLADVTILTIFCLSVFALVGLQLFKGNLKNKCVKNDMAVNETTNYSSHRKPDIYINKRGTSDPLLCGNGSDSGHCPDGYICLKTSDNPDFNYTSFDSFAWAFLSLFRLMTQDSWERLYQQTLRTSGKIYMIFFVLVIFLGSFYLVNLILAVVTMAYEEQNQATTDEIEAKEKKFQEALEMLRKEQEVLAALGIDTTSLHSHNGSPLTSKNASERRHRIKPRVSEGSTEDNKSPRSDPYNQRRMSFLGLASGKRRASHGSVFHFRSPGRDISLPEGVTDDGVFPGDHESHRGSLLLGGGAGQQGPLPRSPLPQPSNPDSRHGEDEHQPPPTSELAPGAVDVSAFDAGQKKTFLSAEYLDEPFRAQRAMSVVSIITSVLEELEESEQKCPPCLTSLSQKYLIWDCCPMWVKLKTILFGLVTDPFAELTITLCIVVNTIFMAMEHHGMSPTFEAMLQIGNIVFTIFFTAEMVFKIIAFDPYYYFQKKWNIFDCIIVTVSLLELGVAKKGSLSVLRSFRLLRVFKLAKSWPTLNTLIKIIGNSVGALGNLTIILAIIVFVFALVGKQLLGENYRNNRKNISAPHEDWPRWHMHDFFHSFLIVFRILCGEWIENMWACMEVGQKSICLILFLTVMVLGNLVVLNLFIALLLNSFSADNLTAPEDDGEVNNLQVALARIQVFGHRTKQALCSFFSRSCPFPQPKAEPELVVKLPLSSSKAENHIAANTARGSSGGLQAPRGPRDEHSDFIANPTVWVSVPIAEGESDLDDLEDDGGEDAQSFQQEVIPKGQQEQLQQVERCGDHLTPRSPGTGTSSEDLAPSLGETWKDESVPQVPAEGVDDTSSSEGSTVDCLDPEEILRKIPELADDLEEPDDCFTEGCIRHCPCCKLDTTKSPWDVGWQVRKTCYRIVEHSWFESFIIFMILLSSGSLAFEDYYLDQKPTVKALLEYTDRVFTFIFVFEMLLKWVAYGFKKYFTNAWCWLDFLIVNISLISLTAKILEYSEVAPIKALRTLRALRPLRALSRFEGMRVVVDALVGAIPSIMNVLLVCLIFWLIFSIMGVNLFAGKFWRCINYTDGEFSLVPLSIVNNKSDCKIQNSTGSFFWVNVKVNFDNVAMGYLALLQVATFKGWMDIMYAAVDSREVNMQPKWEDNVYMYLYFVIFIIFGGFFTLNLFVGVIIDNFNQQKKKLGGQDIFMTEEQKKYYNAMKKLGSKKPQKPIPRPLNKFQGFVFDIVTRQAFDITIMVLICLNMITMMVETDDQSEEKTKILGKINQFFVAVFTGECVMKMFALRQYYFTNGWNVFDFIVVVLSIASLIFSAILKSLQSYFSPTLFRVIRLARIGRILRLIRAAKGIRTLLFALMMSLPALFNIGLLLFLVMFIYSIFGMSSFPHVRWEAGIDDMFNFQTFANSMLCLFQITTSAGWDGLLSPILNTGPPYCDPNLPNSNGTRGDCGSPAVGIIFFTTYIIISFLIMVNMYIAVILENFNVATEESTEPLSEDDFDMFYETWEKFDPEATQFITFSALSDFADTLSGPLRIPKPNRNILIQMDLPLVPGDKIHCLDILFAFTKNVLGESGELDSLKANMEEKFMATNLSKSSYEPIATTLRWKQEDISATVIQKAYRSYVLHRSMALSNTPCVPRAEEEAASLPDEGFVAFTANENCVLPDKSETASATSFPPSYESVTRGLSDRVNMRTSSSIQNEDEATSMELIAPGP
For data set [2], the target named is T1, Sodium channel protein type 10 subunit alpha. Description: Inhibition of human recombinant Nav 1.8 channel expressed in HEK293 cells at 1 uM. It is filed as cell-based.
Data set [3] is described as follows: Aqueous solubility of the compound. The data set is classed as physicochemical.
For data set [4], the target named is Sodium channel protein type 3 subunit alpha (Homo sapiens) (UniProt Q9NY46). Description: Inhibition of human Nav1.3 channel at 1 uM.
The target of data set [5] is T1, Sodium channel protein type 10 subunit alpha. Description: Inhibition of human recombinant Nav 1.8 channel expressed in HEK293 cells at 0.1 uM. The data set is classed as cell-based.
The target of data set [6] is Sodium channel protein type 2 subunit alpha (Homo sapiens) (UniProt Q99250). Put plainly: Inhibition of human Nav1.2 channel at 1 uM.
Sodium channel protein type 2 subunit alpha (Homo sapiens), sequence (Q99250 whole entry, looked up): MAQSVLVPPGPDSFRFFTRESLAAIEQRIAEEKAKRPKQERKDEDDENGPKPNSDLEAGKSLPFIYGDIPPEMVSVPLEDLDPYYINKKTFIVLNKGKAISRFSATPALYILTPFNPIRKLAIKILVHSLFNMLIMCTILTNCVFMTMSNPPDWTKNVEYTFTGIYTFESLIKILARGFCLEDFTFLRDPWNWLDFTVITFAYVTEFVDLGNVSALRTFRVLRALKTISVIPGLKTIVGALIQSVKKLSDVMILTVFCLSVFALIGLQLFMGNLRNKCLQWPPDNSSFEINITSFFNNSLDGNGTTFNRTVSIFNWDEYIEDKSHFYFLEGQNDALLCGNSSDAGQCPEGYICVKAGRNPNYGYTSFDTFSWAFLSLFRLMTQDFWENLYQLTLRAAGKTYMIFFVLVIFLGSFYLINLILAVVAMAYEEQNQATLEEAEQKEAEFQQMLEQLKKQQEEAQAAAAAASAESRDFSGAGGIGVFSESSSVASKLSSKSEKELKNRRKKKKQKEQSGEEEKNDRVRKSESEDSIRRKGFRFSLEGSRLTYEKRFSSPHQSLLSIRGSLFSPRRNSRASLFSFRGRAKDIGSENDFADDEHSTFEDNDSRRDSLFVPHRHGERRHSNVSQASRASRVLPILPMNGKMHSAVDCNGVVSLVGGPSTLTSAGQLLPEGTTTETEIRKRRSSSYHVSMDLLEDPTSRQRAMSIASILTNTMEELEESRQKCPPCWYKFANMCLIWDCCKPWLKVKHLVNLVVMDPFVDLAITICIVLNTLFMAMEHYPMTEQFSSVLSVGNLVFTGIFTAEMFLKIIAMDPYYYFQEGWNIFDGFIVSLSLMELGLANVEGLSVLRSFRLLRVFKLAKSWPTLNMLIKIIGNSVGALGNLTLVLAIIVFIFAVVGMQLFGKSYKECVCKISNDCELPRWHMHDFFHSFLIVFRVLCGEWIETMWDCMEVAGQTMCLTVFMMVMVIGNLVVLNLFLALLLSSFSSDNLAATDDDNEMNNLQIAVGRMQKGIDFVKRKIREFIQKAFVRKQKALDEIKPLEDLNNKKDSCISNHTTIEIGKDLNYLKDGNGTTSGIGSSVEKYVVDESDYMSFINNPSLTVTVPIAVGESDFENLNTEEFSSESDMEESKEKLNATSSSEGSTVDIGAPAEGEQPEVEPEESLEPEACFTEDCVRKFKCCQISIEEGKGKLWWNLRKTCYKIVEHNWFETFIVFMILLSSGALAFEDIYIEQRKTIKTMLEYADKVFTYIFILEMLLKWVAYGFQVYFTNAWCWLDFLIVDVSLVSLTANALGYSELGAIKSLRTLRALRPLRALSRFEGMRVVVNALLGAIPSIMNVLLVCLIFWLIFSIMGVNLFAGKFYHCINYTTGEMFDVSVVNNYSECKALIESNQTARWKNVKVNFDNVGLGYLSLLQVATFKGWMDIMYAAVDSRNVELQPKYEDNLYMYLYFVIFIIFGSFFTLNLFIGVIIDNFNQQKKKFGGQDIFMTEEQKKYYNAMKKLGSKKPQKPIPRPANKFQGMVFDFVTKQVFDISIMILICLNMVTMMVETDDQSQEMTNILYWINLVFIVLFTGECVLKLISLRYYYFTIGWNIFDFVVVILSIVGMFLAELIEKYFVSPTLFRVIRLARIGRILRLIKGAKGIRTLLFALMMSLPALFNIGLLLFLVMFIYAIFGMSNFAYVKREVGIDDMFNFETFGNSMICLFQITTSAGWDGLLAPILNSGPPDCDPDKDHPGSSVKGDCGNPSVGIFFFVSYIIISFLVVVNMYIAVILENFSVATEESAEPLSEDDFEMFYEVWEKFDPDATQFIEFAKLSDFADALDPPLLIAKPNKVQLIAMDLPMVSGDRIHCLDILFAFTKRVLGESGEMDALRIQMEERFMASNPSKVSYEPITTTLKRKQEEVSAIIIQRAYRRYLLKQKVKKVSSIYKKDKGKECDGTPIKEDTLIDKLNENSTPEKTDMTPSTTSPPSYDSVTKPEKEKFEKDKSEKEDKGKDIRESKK
Data set [7] has as its target Sodium channel protein type 10 subunit alpha (Mus musculus, UniProt Q6QIY3). Put plainly: Inhibition of mouse recombinant Nav 1.8 channel expressed in HEK293 cells by isotopic efflux assay. It is filed as cell-based.
The nature of data set [8]: Activity at rat dorsal root ganglion in resting state with prepulse voltage of -100 mV assessed as blockade of TTx-resistant sodium current at 1 uM by whole-cell patch clamp technique. It is filed as functional. For orientation: The patch-clamp technique gives a direct electrical read-out from membranes.
Data set [9] has as its target T1, Sodium channel protein type 10 subunit alpha. Put plainly: Activity at human recombinant Nav 1.8 channel expressed in HEK293 cells in resting state with prepulse voltage of -100 mV assessed as blockade of TTx-resistant sodium current at 1 uM. The data set is classed as cell-based.
The target is the same in data set [10]. Description: Activity at human recombinant Nav 1.8 channel expressed in HEK293 cells in resting state with prepulse voltage of -100 mV assessed as blockade of TTx-resistant sodium current at 0.1 uM. The data set is classed as cell-based.
The target of data set [11] is Nav1.5 (sodium channel protein type 5 subunit alpha) (Homo sapiens, UniProt Q14524). Put plainly: Inhibition of human Nav1.5 channel at 1 uM. The settings on record: human.
The target in data set [12] is T1, Sodium channel protein type 10 subunit alpha. Put plainly: Activity at human recombinant Nav 1.8 channel expressed in HEK293 cells in inactivated state with prepulse voltage of -40 mV assessed as blockade of TTx-resistant sodium current at 0.1 uM. It is filed as cell-based.
The nature of data set [13]: Activity at rat dorsal root ganglion in inactivated state with prepulse voltage of -40 mV assessed as blockade of TTx-resistant sodium current at 0.3 uM by whole-cell patch clamp technique. It is filed as functional.
Data set [14] is described as follows: Oral bioavailability in Sprague-Dawley rat at 10 mg/kg. The data set is classed as ADME, organism-based. The settings on record: in vivo.
Data set [15] can be described thus: Activity at rat dorsal root ganglion in resting state with prepulse voltage of -100 mV assessed as blockade of TTx-resistant sodium current at 0.3 uM by whole-cell patch clamp technique. The data set is classed as functional.
Data set [16] in a line: Intrinsic clearance in Sprague-Dawley rat microsomes after 1 hr. The data set is classed as ADME, Liver, Microsome.
Data set [17] addresses Voltage-gated inwardly rectifying potassium channel KCNH2 (Homo sapiens, UniProt Q12809). Put plainly: Inhibition of hERG potassium channel expressed in CHO cells by isotope efflux assay.
Data set [18] is described as follows: Activity at rat dorsal root ganglion in inactivated state with prepulse voltage of -40 mV assessed as blockade of TTx-resistant sodium current at 1 uM by whole-cell patch clamp technique. It is filed as functional.

Voltage-gated inwardly rectifying potassium channel KCNH2, sequence (Q12809 whole entry): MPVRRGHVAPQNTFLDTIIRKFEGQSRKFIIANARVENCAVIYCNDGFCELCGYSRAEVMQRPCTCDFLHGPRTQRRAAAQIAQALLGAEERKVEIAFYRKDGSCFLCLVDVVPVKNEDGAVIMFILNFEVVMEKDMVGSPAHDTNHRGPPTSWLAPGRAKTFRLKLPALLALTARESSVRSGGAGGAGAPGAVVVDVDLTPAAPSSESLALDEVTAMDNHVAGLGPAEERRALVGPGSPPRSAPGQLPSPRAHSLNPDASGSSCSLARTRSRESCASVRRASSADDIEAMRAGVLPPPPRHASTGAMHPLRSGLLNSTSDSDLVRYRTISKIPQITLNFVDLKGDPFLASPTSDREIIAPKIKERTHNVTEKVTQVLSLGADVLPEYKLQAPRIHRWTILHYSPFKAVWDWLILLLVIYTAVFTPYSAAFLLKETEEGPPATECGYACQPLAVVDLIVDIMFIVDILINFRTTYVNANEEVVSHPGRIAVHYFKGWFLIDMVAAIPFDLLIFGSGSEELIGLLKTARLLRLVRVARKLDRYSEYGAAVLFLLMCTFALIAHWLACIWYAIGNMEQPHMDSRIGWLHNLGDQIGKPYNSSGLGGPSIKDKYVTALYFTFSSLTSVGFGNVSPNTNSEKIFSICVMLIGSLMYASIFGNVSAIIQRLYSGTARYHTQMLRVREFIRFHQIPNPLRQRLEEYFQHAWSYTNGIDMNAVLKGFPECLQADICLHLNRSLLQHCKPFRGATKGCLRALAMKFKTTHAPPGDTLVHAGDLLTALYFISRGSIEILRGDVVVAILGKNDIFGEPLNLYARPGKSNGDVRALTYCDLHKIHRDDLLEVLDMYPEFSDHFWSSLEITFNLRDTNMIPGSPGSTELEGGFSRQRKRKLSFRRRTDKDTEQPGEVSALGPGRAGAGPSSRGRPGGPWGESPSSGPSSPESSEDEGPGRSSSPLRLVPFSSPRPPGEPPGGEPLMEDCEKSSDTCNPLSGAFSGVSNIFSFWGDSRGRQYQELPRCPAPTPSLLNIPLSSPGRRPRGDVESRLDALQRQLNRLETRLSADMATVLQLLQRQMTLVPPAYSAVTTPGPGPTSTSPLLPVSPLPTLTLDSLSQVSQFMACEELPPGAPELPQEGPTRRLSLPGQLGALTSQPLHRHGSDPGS

As a reminder, the inhibition is the relative decrease from the control value, in per cent. What is called solubility is the dissolved amount per volume that the medium holds. A low value points to little dissolved substance. A word on the IC50: it is the concentration at which inhibition is half-maximal. For orientation: bioavailability means dose-corrected exposure relative to a reference, in per cent. The low end stands for poor availability, the high end for good availability. The term microsomal CLint denotes a measure of how fast metabolising enzymes remove a compound, apart from limits set by blood flow. Read a high microsomal CLint as faster metabolism. For the compound `Cc1cccc(NC(=N)c2ccc(-c3ccc(Cl)cc3)o2)c1.Cl`, the inhibition in [1] was 75%; in [2], 75%; in [4], 36%; in data set [5] it was 46%; in data set [6] it was 52%; in data set [9], 5%. The inhibition in data set [10] was 1%; in data set [12], 46%. In addition, the solubility in [3] is 250 µg/mL. For the same compound, the IC50 in data set [7] turned out to be 1900 nM; in data set [17], 2100 nM. Moreover, the inhibition at 1 µM in [8] stood at 10%; in data set [11], 56%; in data set [18], 60%. For the same compound, the inhibition at 0.3 µM came out at 45% in data set [13] and 2% in data set [15]. The bioavailability in data set [14] turned out to be 67%. In data set [16], this compound gave a microsomal CLint of 220 µL/min/mg.
